Laboratory results from patent US10426806B1, “Anti-obesity effect of Borago officinalis linn. extracts to prevent and treat metabolic disorders” (priority 2018, dated 2019).

Tests used:
Type in all cases: in vivo, Wistar rats
[1] = system: high-fat diet induced-obese rats; test: Therapeutic study: high-fat diet induced-obese rats treated for 12 weeks; conditions: for Average Food intake / Average body weight / FBG (fasting blood glucose level) / Cholesterol / HDL / LDL / Triglycerides / VLDL: obese rats, 12 weeks of treatment; for Average food intake of rats: TO, TS, TC1 and TC2 treated groups, 12 weeks, HFD; for Cholesterol / HDL / LDL / Triglycerides / VLDL: serum
Experimental: (§1) Thirty male Wistar rats (210-220 g) were obtained from the animal house facility of Dr. Panjwani Center for Molecular Medicine and Drug Research (ICCBS). All animals were kept under standard conditions of temperature and humidity with a 12 h light/dark cycle. This study was approved by the Ethical Committee of International Center for Chemical and Biological Sciences (Protocol #: 2015-0011). After one week of acclimation period, rats were randomly divided into two groups. The control group was fed with normal diet (D12450B, Research Diets, USA), whereas the other groups were fed with high-fat diet (D12451, Research Diets, USA) for a period of 16-week. After 10 weeks, biochemical parameters were evaluated regularly to establish whether the model has developed the symptoms of weight gain and metabolic syndrome.
(§2) Whereas for therapeutic studies the animal groups were further sub-divided into following groups which are as follow: Group 1 (TA), Control; animals in this group received LFD, and distilled water. Group 2 (TC), Pathological control; animals in this group received HFD, and distilled water. Groups 3 (TO), High fat diet induced obese animals in this group received standard drug Orlistat (100 mg/kg/day). Group 4 (TS): High fat diet induced obese animals in this group received standard drug Sibutramine (5 mg/kg/day). Group 5 (TC1): High fat diet induced obese animals in this group received B. officinalis extract (150 mg/kg/day). Group 6 (TC2): High fat diet induced obese animals in this group received B. officinalis extract (300 mg/kg/day).
Body weights were recorded weekly throughout the experiment. The food intake was calculated by using following formula, as described by Ghezzi et al, 2012: […]
(§3) For biochemical analysis after 16 weeks of experimental diet, the blood samples were taken from the tail vein after an overnight fast, whereas after 12 weeks of treatment period, rats were subjected to anesthesia, and blood was drawn by cardiac puncture. Liver and pancreas samples were prepared and stained with hematoxylin and eosin; the liver was excised and fixed in buffered formalin. The sectioned liver tissue segments were stained with hematoxylin-eosin (H-E), and observed under light microscope.
(§4) Blood glucose, serum insulin, total cholesterol, triglycerides, HDL, LDL, very low density lipoproteins […], urea, creatinine, aspartate aminotransferase […], alkaline phosphatase (ALP), serum glutamic pyruvic transaminase (SGPT), and direct and total bilirubin were estimated. Fasting blood glucose levels were measured using glucometer (AccuChek Performa, Australia). Fasting insulin levels were quantified using ultra sensitive rat insulin ELISA kit (Crystal Chem, Downers Grove, USA). Insulin sensitivity was evaluated using Homeostatic Model Assessment (HOMA). Serum total cholesterol, triglycerides, HDL, LDL, VLDL, urea, creatinine, AST, ALP, SGPT, and direct and total bilirubin were analyzed using automatic analyzer (Hitachi, Roche Diagnostics 902, Tokyo, Japan).
In therapeutic study, we investigated the capacity of B. officinalis extracts to reduce the weight of high fat diet induced obese rats, and to improve the key biochemical parameters in metabolic disorders.
Obese rats were treated with Borago officinalis extracts, at two different doses i.e. 150 mg/kg, and 300 mg/kg of body weight for 12 weeks. During these 12 weeks they were also fed HFD.

[2] = system: high-fat diet induced-obese rats; test: Evaluation of renal and liver toxicity after 12 weeks of treatment (therapeutic study); conditions: 5 mg/kg (TS)
Experimental: as §2, §3, §4
Evaluation of Renal and Liver Toxicity of Borago officinalis Extract

[3] = system: high fat diet rats; test: Preventive study: high fat diet rats given extract or standard drug for 8 weeks; conditions: for Average Food intake / Average body weight / Cholestrol / HDL / LDL / Tri-glyceride / VLDL: 8 weeks preventive study; for FBG (fasting blood glucose level): preventive study; for Cholestrol / HDL / LDL / Tri-glyceride / VLDL: serum
Experimental: as §1
After a period of 16 weeks, the group of rats on high fat diet (HF) have developed symptoms of metabolic disorders, along with insulin resistance. The HF fed rats were then sub-divided into […] groups of three rats each, i.e. Group 1 (PA), Control; animals in this group received LFD, and distilled water. Group 2, Pathological control (PC); animals in this group received HFD, and distilled water. Group 3 (PO); animals in this group received HFD, and standard drug Orlistat (100 mg/kg/day). Group 4 (PS); animals in this group received HFD, and standard drug Sibutramine (5 mg/kg/day). Group 5 (PC1); animals in this group received HFD, and B. officinalis extract (150 mg/kg/day). Group 6 (PC2); animals in this group received HFD, and B. officinalis extract (300 mg/kg/day).
Body weights were recorded weekly throughout the experiment. The food intake was calculated by using following formula, as described by Ghezzi et al, 2012:
[…] Liver and pancreas samples were prepared and stained with hematoxylin and eosin; the liver was excised and fixed in buffered formalin. The sectioned liver tissue segments were stained with hematoxylin-eosin (H-E), and observed under light microscope.
as §4

With `CC(C)CC(N(C)C)C1(c2ccc(Cl)cc2)CCC1` (stereo not shown) [Sibutramine] the “Average Food intake” value ([1]; 5 mg/kg (TS)) was 4.20 g/100 g, the “Average body weight” value ([1]; 5 mg/kg (TS)) was 361 ± 6.43 g and the “FBG (fasting blood glucose level)” value ([1]; 5 mg/kg (TS)) was 80 ± 0.12 mg/dL. For the same compound, the “Average food intake of rats” value [1] was “decrease”, the Cholesterol ([1]; 5 mg/kg (TS)) was 65 ± 0.13 mg/dL and the HDL ([1]; 5 mg/kg (TS)) was 59 ± 0.16 mg/dL. For the same compound, the LDL ([1]; 5 mg/kg (TS)) was 14 ± 0.68 mg/dL, the Triglycerides ([1]; 5 mg/kg (TS)) was 51 ± 0.19 mg/dL and the VLDL ([1]; 5 mg/kg (TS)) was 9 ± 0.8 mg/dL. It also gave an ALP [2] of 116 ± 0.14 U/L, an ALT [2] of 85 ± 0.009 U/L and a Creatinine [2] of 0.49 ± 0.02 mg/dL. For the same compound, the SGPT [2] was 38 ± 3.34 U/L, the “Total Bilirubin” value [2] was 0.15 ± 0.01 mg/dL and the Urea [2] was 31 ± 2.42 mg/dL. For the same compound, the “Average Food intake” value ([3]; 5 mg/kg (PS)) was 5.34 g/100 g, the Average body weight ([3]; 5 mg/kg (PS)) was 251 ± 0.11 g and the “FBG (fasting blood glucose level)” value ([3]; 5 mg/kg (PS)) was 76 ± 2.12 mg/dL. For the same compound, the Cholestrol ([3]; 5 mg/kg (PS)) was 65 ± 0.13 mg/dL, the HDL ([3]; 5 mg/kg (PS)) was 59 ± 0.16 mg/dL and the LDL ([3]; 5 mg/kg (PS)) was 14 ± 0.68 mg/dL. For the same compound, the Tri-glyceride ([3]; 5 mg/kg (PS)) was 51 ± 0.19 mg/dL and the VLDL ([3]; 5 mg/kg (PS)) was 9 ± 0.8 mg/dL.
In the case of `CCCCCCCCCCC[C@@H](C[C@@H]1OC(=O)[C@H]1CCCCCC)OC(=O)[C@H](CC(C)C)NC=O` [Orlistat], the “Average Food intake” value ([1]; 100 mg/kg (TO)) is reported as 3.18 g/100 g, the “Average body weight” value ([1]; 100 mg/kg (TO)) is reported as 356 ± 4.63 g and the “FBG (fasting blood glucose level)” value ([1]; 100 mg/kg (TO)) is reported as 84 ± 0.17 mg/dL. The “Average food intake of rats” value [1] was “decrease”, the Cholesterol ([1]; 100 mg/kg (TO)) was 68 ± 3.66 mg/dL and the HDL ([1]; 100 mg/kg (TO)) was 52 ± 3.04 mg/dL. The LDL ([1]; 100 mg/kg (TO)) was 15 ± 0.41 mg/dL, the Triglycerides ([1]; 100 mg/kg (TO)) was 52 ± 0.16 mg/dL and the VLDL ([1]; 100 mg/kg (TO)) was 9 ± 0.87 mg/dL. For the same compound, the “Average Food intake” value ([3]; 100 mg/kg (PO)) was 4.23 g/100 g, the Average body weight ([3]; 100 mg/kg (PO)) was 256 ± 0.10 g and the “FBG (fasting blood glucose level)” value ([3]; 100 mg/kg (PO)) was 79 ± 1.04 mg/dL. For the same compound, the Cholestrol ([3]; 100 mg/kg (PO)) was 68 ± 3.66 mg/dL, the HDL ([3]; 100 mg/kg (PO)) was 52 ± 3.04 mg/dL and the LDL ([3]; 100 mg/kg (PO)) was 15 ± 0.41 mg/dL. It also gave a Tri-glyceride ([3]; 100 mg/kg (PO)) of 52 ± 0.16 mg/dL and a VLDL ([3]; 100 mg/kg (PO)) of 9 ± 0.87 mg/dL.
